Publication PMC7397336, “5-(4H)-Oxazolones and Their Benzamides as Potential Bioactive Small Molecules” (Molecules, 2020)
Marks after values point to notes of the source that are not given here.

Assays:
soybean lipoxygenase = biological target: T1, soybean lipoxygenase (Glycine max, UniProt P08170); test: Soybean lipoxygenase inhibition study; format: biochemical; conditions: for inhibition at 100 µM: read-out: LOX % inhibition 100 μM; for IC50: soybean lipoxygenase, sodium linoleate 0.1 mM, read-out: LOX IC50
T1 construct: purchased Sigma Chemical, Co. (St. Louis, MO, USA)
T1 sequence (P08170 1-839): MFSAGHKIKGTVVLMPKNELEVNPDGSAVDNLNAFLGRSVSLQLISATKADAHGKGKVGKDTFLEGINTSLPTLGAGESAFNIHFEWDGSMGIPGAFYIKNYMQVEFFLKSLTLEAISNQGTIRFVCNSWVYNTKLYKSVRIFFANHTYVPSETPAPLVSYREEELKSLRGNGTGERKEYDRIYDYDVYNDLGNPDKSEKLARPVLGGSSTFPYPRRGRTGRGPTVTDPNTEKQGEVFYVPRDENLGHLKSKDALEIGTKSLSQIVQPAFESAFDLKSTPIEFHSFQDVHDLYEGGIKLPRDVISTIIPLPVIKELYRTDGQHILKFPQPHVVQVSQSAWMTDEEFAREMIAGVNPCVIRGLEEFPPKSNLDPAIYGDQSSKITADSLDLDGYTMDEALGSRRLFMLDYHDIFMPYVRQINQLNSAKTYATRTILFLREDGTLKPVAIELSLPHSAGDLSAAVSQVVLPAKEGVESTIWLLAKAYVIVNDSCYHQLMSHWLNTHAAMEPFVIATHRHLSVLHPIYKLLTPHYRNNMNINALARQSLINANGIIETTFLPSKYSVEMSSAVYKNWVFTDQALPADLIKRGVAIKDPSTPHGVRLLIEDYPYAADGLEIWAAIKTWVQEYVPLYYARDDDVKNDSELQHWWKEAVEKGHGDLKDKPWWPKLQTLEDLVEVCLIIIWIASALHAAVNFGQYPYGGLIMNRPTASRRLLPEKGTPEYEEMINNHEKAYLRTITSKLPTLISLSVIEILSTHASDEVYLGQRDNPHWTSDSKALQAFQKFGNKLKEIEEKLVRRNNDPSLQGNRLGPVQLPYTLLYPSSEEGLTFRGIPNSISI
Method: For the in vitro assays, a stock solution (1% DMSO in the appropriate buffer with the tested compound diluted under sonification) was prepared from which several dilutions were made with the appropriate buffer. DMSO solution of the tested compound (stock solutions 10 mM) was incubated with sodium linoleate (0.1 mM) and 0.2 mL of soybean lipoxygenase solution (1/9 × 10^−4 w/v in saline) at room temperature. The test follows our previous published methods. […] Several concentrations were used to determine the IC50.

[1] = Inhibition of linoleic acid lipid peroxidation (AAPH)
Excerpt: Azo compounds, like AAPH, generating free radicals through spontaneous thermal decomposition are useful for in vitro studies of free radical production. Production of conjugated diene hydroperoxide by oxidation of sodium linoleate in an aqueous solution is monitored at 234 nm. This assay can be used to follow oxidative changes and to understand the contribution of each tested compound. […] It seems that the presence of moiety Ar (Scheme 1) is mainly correlated with the antioxidant result. The nature of the heteroatom O/S in Ar substituent in the 5-membered oxazolone ring (compounds 2c and 2e) influences the biological response. The replacement of the thienyl group in 2c by a furyl group (2e) leads to a 31% decrease of the antioxidant ability.
Each in vitro experiment was performed at least in triplicate and the standard deviation of absorbance was less than 10% of the mean. For the in vitro assays, a stock solution (1% DMSO in the appropriate buffer with the tested compound diluted under sonification) was prepared from which several dilutions were made with the appropriate buffer.
The AAPH-induced oxidation of linoleic acid measures the ability of an antioxidant to prevent oxidation of linoleic acid sodium salt induced by alkylperoxyl radicals, generated from the water soluble azo compound 2,2′-azobis(2-amidinopropane) dihydrochloride (AAPH). The assay was performed according to our previous publications. Trolox was used as reference compound.

mushroom tyrosinase = mushroom tyrosinase (Agaricus bisporus, UniProt C7FF04); test: Tyrosinase inhibition assay; format: biochemical; conditions: L-Dopa substrate; for inhibition at 100 µM: read-out: ΤyrI% 100 μM (inhibition of mushroom tyrosinase)
mushroom tyrosinase, sequence (G1K3P4 entry or part of it): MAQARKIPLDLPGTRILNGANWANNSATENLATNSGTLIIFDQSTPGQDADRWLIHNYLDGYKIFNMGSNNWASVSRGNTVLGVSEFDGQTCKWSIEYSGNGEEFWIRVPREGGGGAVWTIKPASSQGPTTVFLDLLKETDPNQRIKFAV
mushroom tyrosinase, sequence (C7FF04 1-392): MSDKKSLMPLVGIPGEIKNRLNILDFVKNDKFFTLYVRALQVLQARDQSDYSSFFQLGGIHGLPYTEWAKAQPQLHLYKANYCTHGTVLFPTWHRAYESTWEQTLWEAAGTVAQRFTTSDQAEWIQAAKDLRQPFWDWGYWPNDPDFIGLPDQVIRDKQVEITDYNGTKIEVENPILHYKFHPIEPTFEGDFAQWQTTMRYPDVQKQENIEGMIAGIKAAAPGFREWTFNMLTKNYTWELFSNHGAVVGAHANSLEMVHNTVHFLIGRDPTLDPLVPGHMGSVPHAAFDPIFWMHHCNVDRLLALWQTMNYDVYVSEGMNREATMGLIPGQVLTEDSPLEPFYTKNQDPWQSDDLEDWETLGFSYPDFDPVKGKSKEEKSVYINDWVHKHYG
Method: For the in vitro assays, a stock solution (1% DMSO in the appropriate buffer with the tested compound diluted under sonification) was prepared from which several dilutions were made with the appropriate buffer.

[2] = system: carrageenin-induced rat paw edema; test: Inhibition of the carrageenin-induced rat paw edema; format: in vivo, Fisher 344 rats; conditions: 0.0057 mmol/kg body weight i.p., 3.5 h after carrageenin
Method: For the estimation of anti-inflammatory potential of the tested compounds the rat carrageenin induced paw edema assay was employed as a model for acute inflammation. Indomethacin, as a reference drug, and our compounds were administered intraperitoneally in order to ensure systemic response via fast bioavailability, while carrageenin’s intradermal administration, as inflammatory agent, aimed to local response. The development of the edema induced by carrageenin has been described as a biphasic event. The early phase of the inflammatory response, lasting 0.5–1.5 h, is chiefly mediated by histamine and serotonin release inducing hyperalgesia, swelling and redness, while the later phase, lasting 3–6 h, is sustained presumably by prostaglandin release. This model reliably predicts the anti-inflammatory efficacy of the NSAIDs during the second phase, since non-steroidal anti-inflammatory drugs (NSAIDs) present weak activity in the first phase. Therefore, using this protocol we could evaluate our compounds as potential anti-inflammatory agents, as a result of inhibition of prostaglandin amplification.
The animals (Fisher 344 rats), which have been bred in our laboratory, were housed under standard conditions and received a diet of commercial food pellets and water ad libitum during the maintenance but they were entirely fasted during the experiment period. Both sexes were used while females pregnant were excluded. Each group was composed of 6–15 animals. Our studies were in accordance with recognized guidelines on animal experimentation (guidelines for the care and use of laboratory animals published by the Greek Government 160/1991, based on EU regulations 86/609). […]
Edema was induced in the right hind paw of the rats by the intradermal injection of 0.1 mL 2% carrageenin in water we followed our previous published method. […] The change in paw weight was compared with that in control animals (treated with water) and expressed as a percent inhibition of the edema CPE % values. […]

SMILES	LOX % inhibition 100 μM (soybean lipoxygenase; 100 µM)	AAPH% 100 µM (anti-lipid peroxidation) [1]	ΤyrI% 100 μM (inhibition of mushroom tyrosinase) (mushroom tyrosinase)	melting point [°C]	inhibition at 100 µM (mushroom tyrosinase) [%]	LOX % inhibition 100 μM (soybean lipoxygenase; 100 μM) [%]	inhibition at 100 µM (soybean lipoxygenase; 100 µM) [%]	IC50 (soybean lipoxygenase) [µM]	CPE (%) inhibition of carrageenin-induced rat paw edema [2]
O=C1OC(c2ccccc2)=N/C1=C\c1ccccc1 [Compound 2a, (Z)-4-Benzylidene-2-phenyloxazol-5(4H)-one]	no	95%	no						
O=C1OC(c2ccccc2)=N/C1=C\c1ccc(OCc2ccc(Br)cc2)cc1 [Compound 2b, (Z)-4-(4-((4-Bromobenzyl)oxy)benzylidene)-2-phenyloxazol-5(4H)-one]	no	79%	no	199 to 200					
O=C1OC(c2ccccc2)=N/C1=C\c1cccs1 [Compound 2c, (Z)-2-Phenyl-4-(thiophen-2-ylmethylene)oxazol-5(4H)-one]	no	91%			16				
O=C1OC(c2ccccc2)=N/C1=C\c1cccc2ccccc12 [Compound 2d, (Z)-4-(Naphthalen-1-ylmethylene)-2-phenyloxazol-5(4H)-one]		81%		169 to 171	5	49	< 50		
O=C1OC(c2ccccc2)=N/C1=C\c1ccco1 [Compound 2e, (Z)-4-(Furan-2-ylmethylene)-2-phenyloxazol-5(4H)-one]		60%			3				
O=C1OC(c2ccccc2)=N/C1=C\c1ccc(Oc2ccccc2)cc1 [Compound 2f, (Z)-4-(4-Phenoxybenzylidene)-2-phenyloxazol-5(4H)-one]	no	no		169					
O=C(N/C(=C\c1cccs1)C(=O)N1CCOCC1)c1ccccc1 [Compound 3c, (Z)-N-(3-morpholino-3-oxo-1-(thiophen-2-yl)prop-1-en-2-yl)benzamide]		93%		184 to 186	7	39	< 50		
O=C(N/C(=C\c1cccc2ccccc12)C(=O)N1CCOCC1)c1ccccc1 [Compound 3d, (Z)-N-(3-morpholino-1-(naphthalen-1-yl)-3-oxoprop-1-en-2-yl)benzamide]		91%		135 to 137		37	< 50		
O=C(N/C(=C\c1ccc(OCc2ccc(Br)cc2)cc1)C(=O)N1CCN(C(=O)/C(=C/c2ccc(OCc3ccc(Br)cc3)cc2)NC(=O)c2ccccc2)CC1)c1ccccc1 [Compound 4b, N,N′-((1Z,1′Z)-piperazine-1,4-diylbis(1-(4-((4-bromobenzyl)oxy)phenyl)-3-oxoprop-1-ene-3,2-diyl))-bis-benzamide]		99%		285 to 286	12			85	
O=C(N/C(=C\c1cccc2ccccc12)C(=O)N1CCN(C(=O)/C(=C/c2cccc3ccccc23)NC(=O)c2ccccc2)CC1)c1ccccc1 [Compound 4d, N,N′-((1Z,1′Z)-piperazine-1,4-diylbis(1-(naphthalen-1-yl)-3-oxoprop-1-ene-3,2-diyl))bisbenzamide]		90%		282 to 284	28			65	
O=C(N/C(=C\c1ccco1)C(=O)N1CCN(C(=O)/C(=C/c2ccco2)NC(=O)c2ccccc2)CC1)c1ccccc1 [Compound 4e, N,N′-((1Z,1′Z)-piperazine-1,4-diylbis(1-(furan-2-yl)-3-oxoprop-1-ene-3,2-diyl))bisbenzamide]		83%		293 to 295	17			88	
O=C(N/C(=C\c1cccs1)C(=O)N1CCCCC1)c1ccccc1 [Compound 5c, (Z)-N-(3-Oxo-3-(piperidin-1-yl)-1-(thiophen-2-yl)prop-1-en-2-yl)benzamide]		72%		181 to 182	13	41	< 50		
CCOC(=O)/C(=C/c1cccs1)NC(=O)c1ccccc1 [Compound 6c, (Z)-Ethyl 2-benzamido-3-(thiophen-2-yl)acrylate]		59%		156 to 159	5	36	< 50		
COc1ccc2c(c1)c(CC(=O)O)c(C)n2C(=O)c1ccc(Cl)cc1 [Indomethacin, reference compound]									58 ** %
Cc1c(C)c2c(c(C)c1O)CCC(C)(C(=O)O)O2 (centres unmarked) [Trolox, reference compound]		93%							
